Like-named read-outs stand apart in the source and are kept apart here.
Tests used:
[1] = tested on: MSR-1 magnetotactic bacteria; assay type: cell-based; details: for OD565 nmD13/OD565 nmD6: condition 4, individual vitamin replacing yeast extract, mineral elixir CB3, 50 mL tubes; for Growth ratio (ODD13/ODD6) / Optical density following pre-growth (ODD6) / Optical density following growth (ODD13): condition 4, individual vitamins; for Optical density following pre-growth (ODD6) / Optical density following growth (ODD13): OD at 565 nm; for Optical density following pre-growth (ODD6): day 6; for Optical density following growth (ODD13): day 13
Procedure: Optical density measurements of suspensions of whole magnetotactic bacteria to assess bacterial growth: The optical density of the different suspensions of magnetotactic bacteria was measured at 565 nm, designated as OD565 nm, using a Secomam UviLine9400 spectrophotometer. The value of OD565 nm is proportional to the concentrations of bacteria in the suspensions. […]
This example describes the experimental protocol used to determine the reduced medium replacing the yeast extract that enables the growth of MSR-1 magnetotactic bacteria and the synthesis of magnetosomes by these bacteria. In this example we used non-pharmaceutical grade chemicals for the preparation of the growth media. The compositions of pre-growth and growth media, in one liter of de-ionized water, are indicated in table 2 (condition 2), table 3 (condition 3), and table 4 (condition 4). During the first day of the experiment (D1), a first step consists in collecting the tubes of 15 ml containing 5 mL of MSR-1 cellular stock tube from the freezer at −80° C., in thawing the tubes by letting them at room temperature for 10 minutes. In a hood, we collected from these tubes 100 μl comprising 5.10^6 MSR-1 magnetotactic bacteria that we have inserted in a 50 mL tube comprising 8 mL of filtered pre-growth medium of either condition 2 (table 2), condition 3 (table 3), or condition 4 (table 4). The 50 ml tubes were incubated for 6 days between D1 and D6 in an incubator at 29.5° C. under shaking conditions at 150 rpm. A second step consisted in adding an iron source to the growth media to enable the synthesis of magnetosomes by MSR-1 bacteria. After 6 days of pre-growth, at D6, the 50 ml tubes were placed in a hood. 30 ml of filtered growth medium were then added to the 50 mL tubes (condition 2, table 2, condition 3, table 3, condition 4, table 4) at D6 and the bacteria grew between D6 and D13. […] In contrast, the magnetic response is 0 for conditions Vit5X, Vit10X (condition 3) and very low for conditions CP, I, AA, P (condition 4). […]

[2] = tested on: MSR-1 magnetotactic bacteria; assay type: cell-based; details: for magnetic response: condition 4, individual vitamin replacing yeast extract, at D13; for Magnetic response (%): condition 4, individual vitamins, D13
Procedure: Measurement of the magnetic response of living magnetotactic bacteria using optical microscopic observations of these bacteria under the application of a magnetic field: 1 mL of a suspension of MSR-1 magnetotactic bacteria was centrifugated at 14500 rpm for 10 minutes. The growth medium was removed and replaced by a volume of PBS 0.1× to reach an OD565 nm of 0.5. 1 μL of this suspension of MSR-1 magnetotactic bacteria was deposited on a parallelipedic microscope slide (Menzel-Glaser, 24 mm×60 mm, […]) for microscopic observation using a Zeiss Primo Vert optical microscope with X40 magnification. Four small cubic Neodinium magnets of strength 1.3 T (Supermagnet, N42 W-10-N 10×10×10 mm) were positioned on the microscope's platform at a distance from the suspension of bacteria of ˜2 cm in such a way that it either generated a magnetic field parallel to the position of the observer or to the line between the two binoculars (position 1) or perpendicular to this position (position 2). 20 seconds after positioning the magnet in position 1 or 2, the percentage of bacteria aligned in the direction of the magnetic field was estimated, by considering 200 magnetotactic bacteria. The bacteria that were not aligned in the same direction as the magnetic field generated by the magnet were considered as non-magnetic. Their number is designated as nBNM. The bacteria that were aligned in the direction of the magnetic field generated by the magnet were considered as magnetic. Their number was designated as nBM. The percentage of magnetic bacteria was then given by nBM/(nBM+nBNM). A positive magnetic response of magnetotatic bacteria corresponded to nBM/(nBM+nBNM)>0.5. A negative magnetic response of magnetotatic bacteria corresponds to nBM/(nBM+nBNM)<0.5.
In some cases, the percentage of magnetic bacteria can be measured by optical observation under microscope in the presence of a magnetic field.

Compound: Thiamine HCl
- OD565 nmD13/OD565 nmD6 ([1]; listed as thiamin HCl, HCl): 5.8
- Growth ratio (ODD13/ODD6) [1]: 5.8
- Optical density following pre-growth (ODD6) [1]: 0.26
- Optical density following growth (ODD13) [1]: 1.51
- magnetic response ([2]; listed as thiamin HCl, HCl): 90%
- Magnetic response (%) [2]: >90%

Compound: Nc1nc2ncc(CNc3ccc(C(=O)N[C@@H](CCC(=O)O)C(=O)O)cc3)nc2c(=O)[nH]1 [folic acid, Folic acid]
- OD565 nmD13/OD565 nmD6 [1]: 2.9
- Growth ratio (ODD13/ODD6) [1]: 2.9
- Optical density following pre-growth (ODD6) [1]: 0.4
- Optical density following growth (ODD13) [1]: 1.14
- magnetic response [2]: 90%
- Magnetic response (%) [2]: 50%

Compound: Cc1ncc(CO)c(CO)c1O.Cl [P, Pyridoxine HCl]
- Growth ratio (ODD13/ODD6) [1]: 2.8
- Optical density following pre-growth (ODD6) [1]: 0.25
- Optical density following growth (ODD13) [1]: 0.7
- magnetic response [2]: very low
- Magnetic response (%) [2]: 5%

Compound: O[C@H]1[C@H](O)[C@@H](O)[C@H](O)[C@@H](O)[C@H]1O [I, Inositol]
- Growth ratio (ODD13/ODD6) [1]: 2.4
- Optical density following pre-growth (ODD6) [1]: 0.33
- Optical density following growth (ODD13) [1]: 0.8
- magnetic response [2]: very low
- Magnetic response (%) [2]: 20%

Compound: Nc1ccc(C(=O)O)cc1 [AA, p-Aminobenzoic acid]
- Growth ratio (ODD13/ODD6) [1]: 6.7
- Optical density following pre-growth (ODD6) [1]: 0.12
- Optical density following growth (ODD13) [1]: 0.8
- magnetic response [2]: very low
- Magnetic response (%) [2]: 20%

Compound: Calcium pantothenate [CP]
- Growth ratio (ODD13/ODD6) [1]: 3.3
- Optical density following pre-growth (ODD6) [1]: 0.3
- Optical density following growth (ODD13) [1]: 0.98
- magnetic response [2]: very low
- Magnetic response (%) [2]: 5%

Compound: O=C(O)CCCC[C@@H]1SC[C@@H]2NC(=O)N[C@@H]21 [Biotin]
- magnetic response [2]: 90%
- Magnetic response (%) [2]: >90%

Compound: Cc1cc2nc3c(=O)[nH]c(=O)nc-3n(C[C@H](O)[C@H](O)[C@H](O)CO)c2cc1C [Riboflavin]
- OD565 nmD13/OD565 nmD6 [1]: 4.8
- Growth ratio (ODD13/ODD6) [1]: 4.8
- Optical density following pre-growth (ODD6) [1]: 0.19
- Optical density following growth (ODD13) [1]: 0.92
- magnetic response [2]: 90%
- Magnetic response (%) [2]: >90%

Compound: O=C(O)c1cccnc1 [nicotinic acid, Nicotinic acid]
- OD565 nmD13/OD565 nmD6 [1]: 2.4
- Growth ratio (ODD13/ODD6) [1]: 2.4
- Optical density following pre-growth (ODD6) [1]: 0.27
- Optical density following growth (ODD13) [1]: 0.65
- magnetic response [2]: 90%
- Magnetic response (%) [2]: >90%

— patent US11732277B2, “Cellular production of pure iron oxide nanoparticles” (NANOBACTERIE, priority 2018, dated 2023)
